Source: US12780800B1, “Triazole-pyridinyl substituted azacyclohexyl acetic acid compounds as LPA receptor antagonists” (Viva Star Biosciences Limited, priority 2021, dated 2022)

Molecular target: T1, LPA1 (Homo sapiens, UniProt Q92633)
T1 construct: ProLink (PK) beta-galactosidase enzyme-fragment tag; host or cells: CHO-K1
Assay: LPA1 calcium flux assay (LPA1 functional antagonist assay)
Format: cell-based
Conditions: PathHunter CHO-K1 EDG2 β-Arrestin cell line; calcium indicator dye; stimulated with EC80 concentration of LPA; FLIPR Tetra
Outline: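 The LPA1 antagonist readout was intracellular calcium flux, and IC50 values were calculated from it. Plates stood 30 min at RT after compound addition. Cells, grown overnight, had first taken up calcium dye over 45 min at 37 °C.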

T1 sequence (Q92633 whole entry, the tested form may be a part): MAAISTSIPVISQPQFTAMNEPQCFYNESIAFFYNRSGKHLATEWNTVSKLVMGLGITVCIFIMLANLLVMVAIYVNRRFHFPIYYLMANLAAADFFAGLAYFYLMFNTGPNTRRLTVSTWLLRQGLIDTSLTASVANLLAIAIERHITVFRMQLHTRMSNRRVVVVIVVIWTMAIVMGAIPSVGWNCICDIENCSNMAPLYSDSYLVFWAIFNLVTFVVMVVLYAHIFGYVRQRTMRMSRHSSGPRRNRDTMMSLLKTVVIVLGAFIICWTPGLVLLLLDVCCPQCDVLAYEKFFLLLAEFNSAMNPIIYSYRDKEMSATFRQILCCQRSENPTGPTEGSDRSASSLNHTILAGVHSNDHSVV

Compound | IC50
CCc1nc(-c2nnn(C)c2COc2ncnc(C3CCC3)n2)ccc1N1CCC[C@H](CC(=O)O)C1 [Example 95, (R)-2-(1-(6-(5-(((4-cyclobutyl-1,3,5-triazin-2-yl)oxy)methyl)-1-methyl-1H-1,2,3-triazol-4-yl)-2-ethylpyridin-3-yl)piperidin-3-yl)acetic acid] | < 100 nM
CCc1nc(-c2nnn(C)c2COc2nc(C3CCC3)nc(N3CCOCC3)n2)ccc1N1CCC[C@H](CC(=O)O)C1 [Example 96, (R)-2-(1-(6-(5-(((4-cyclobutyl-6-morpholino-1,3,5-triazin-2-yl)oxy)methyl)-1-methyl-1H-1,2,3-triazol-4-yl)-2-ethylpyridin-3-yl)piperidin-3-yl)acetic acid] | 100 to 500 nM
CCc1nc(-c2nnn(C)c2COc2cc(-n3ccnn3)ncn2)ccc1N1CCC[C@H](CC(=O)O)C1 [Example 97, 2-[(3R)-1-{2-ethyl-6-[1-methyl-5-({[6-(1H-1,2,3-triazol-1-yl)pyrimidin-4-yl]oxy}methyl)-1H-1,2,3-triazol-4-yl]pyridin-3-yl}piperidin-3-yl]acetic acid] | 100 to 500 nM
CCc1nc(-c2nnn(C)c2COc2cc(-n3nccn3)ncn2)ccc1N1CCC[C@H](CC(=O)O)C1 [Example 98, (R)-2-(1-(6-(5-(((6-(2H-1,2,3-triazol-2-yl)pyrimidin-4-yl)oxy)methyl)-1-methyl-1H-1,2,3-triazol-4-yl)-2-ethylpyridin-3-yl)piperidin-3-yl)acetic acid] | 100 to 500 nM
Cc1nc(-c2nnn(C)c2COc2cc(-n3ccnn3)ncn2)ccc1N1C[C@@H](CC(=O)O)CC(F)(F)C1 [Example 99, (S)-2-(1-(6-(5-(((6-(1H-1,2,3-triazol-1-yl)pyrimidin-4-yl)oxy)methyl)-1-methyl-1H-1,2,3-triazol-4-yl)-2-methylpyridin-3-yl)-5,5-difluoropiperidin-3-yl)acetic acid] | < 100 nM
CCc1nc(-c2nnn(C)c2COc2nccc(-n3cccn3)n2)ccc1N1CCC[C@H](CC(=O)O)C1 [Example 101, (R)-2-(1-(6-(5-(((4-(1H-pyrazol-1-yl)pyrimidin-2-yl)oxy)methyl)-1-methyl-1H-1,2,3-triazol-4-yl)-2-ethylpyridin-3-yl)piperidin-3-yl)acetic acid] | < 100 nM
Cc1nc(-c2nnn(C)c2COc2nccc(-n3cccn3)n2)ccc1N1CCC[C@H](CC(=O)O)C1 [Example 102, (R)-2-(1-(6-(5-(((4-(1H-pyrazol-1-yl)pyrimidin-2-yl)oxy)methyl)-1-methyl-1H-1,2,3-triazol-4-yl)-2-methylpyridin-3-yl)piperidin-3-yl)acetic acid] | < 100 nM
Cc1nc(-c2nnn(C)c2COc2cc(-n3cccn3)ccn2)ccc1N1CCC[C@H](CC(=O)O)C1 [Example 103, (R)-2-(1-(6-(5-(((4-(1H-pyrazol-1-yl)pyridin-2-yl)oxy)methyl)-1-methyl-1H-1,2,3-triazol-4-yl)-2-methylpyridin-3-yl)piperidin-3-yl)acetic acid] | < 100 nM
Cc1nc(-c2nnn(C)c2COc2cc(-n3nccn3)ccn2)ccc1N1CCC[C@H](CC(=O)O)C1 [Example 104, (R)-2-(1-(6-(5-(((4-(2H-1,2,3-triazol-2-yl)pyridin-2-yl)oxy)methyl)-1-methyl-1H-1,2,3-triazol-4-yl)-2-methylpyridin-3-yl)piperidin-3-yl)acetic acid] | < 100 nM
Cc1nc(-c2onc(C)c2COc2cc(-n3cccn3)ncn2)ccc1N1C[C@@H](CC(=O)O)CC(F)(F)C1 [Example 105, (S)-2-(1-(6-(4-(((6-(1H-pyrazol-1-yl)pyrimidin-4-yl)oxy)methyl)-3-methylisoxazol-5-yl)-2-methylpyridin-3-yl)-5,5-difluoropiperidin-3-yl)acetic acid] | < 100 nM
CCCn1ccnc(OCc2c(-c3ccc(N4C[C@@H](CC(=O)O)CC(F)(F)C4)c(C)n3)nnn2C)c1=O [Example 106, (S)-2-(5,5-difluoro-1-(2-methyl-6-(1-methyl-5-(((3-oxo-4-propyl-3,4-dihydropyrazin-2-yl)oxy)methyl)-1H-1,2,3-triazol-4-yl)pyridin-3-yl)piperidin-3-yl)acetic acid] | > 5000 nM
CCCn1ccc(=O)c(OCc2c(-c3ccc(N4C[C@@H](CC(=O)O)CC(F)(F)C4)c(CC)n3)nnn2C)c1 [Example 107, (S)-2-(1-(2-ethyl-6-(1-methyl-5-(((4-oxo-1-propyl-1,4-dihydropyridin-3-yl)oxy)methyl)-1H-1,2,3-triazol-4-yl)pyridin-3-yl)-5,5-difluoropiperidin-3-yl)acetic acid] | > 5000 nM
CCCn1nc(OCc2c(-c3ccc(N4C[C@@H](CC(=O)O)CC(F)(F)C4)c(C)n3)nnn2C)ccc1=O [Example 108, (S)-2-(5,5-difluoro-1-(2-methyl-6-(1-methyl-5-(((6-oxo-1-propyl-1,6 dihydropyridazin-3-yl)oxy)methyl)-1H-1,2,3-triazol-4-yl)pyridin-3-yl)piperidin-3-yl)acetic acid] | 500 to 5000 nM

The remaining lines, values ahead:

IC50 | Compound
500 to 5000 nM | CCCn1cc(OCc2c(-c3ccc(N4C[C@@H](CC(=O)O)CC(F)(F)C4)c(CC)n3)nnn2C)c(=O)cn1 [Example 109, (S)-2-(1-(2-ethyl-6-(1-methyl-5-(((5-oxo-2-propyl-2,5-dihydropyridazin-4-yl)oxy)methyl)-1H-1,2,3-triazol-4-yl)pyridin-3-yl)-5,5-difluoropiperidin-3-yl)acetic acid]
> 5000 nM | CCCc1cn(C)c(=O)c(OCc2c(-c3ccc(N4C[C@@H](CC(=O)O)CC(F)(F)C4)c(CC)n3)nnn2C)n1 [Example 110, (S)-2-(1-(2-ethyl-6-(1-methyl-5-(((4-methyl-3-oxo-6-propyl-3,4-dihydropyrazin-2-yl)oxy)methyl)-1H-1,2,3-triazol-4-yl)pyridin-3-yl)-5,5-difluoropiperidin-3-yl)acetic acid]
> 5000 nM | CCCn1ccc(=O)c(OCc2c(-c3ccc(N4C[C@@H](CC(=O)O)CC(F)(F)C4)c(CC)n3)nnn2C)n1 [Example 111, (S)-2-(1-(2-ethyl-6-(1-methyl-5-(((4-oxo-1-propyl-1,4-dihydropyridazin-3-yl)oxy)methyl)-1H-1,2,3-triazol-4-yl)pyridin-3-yl)-5,5-difluoropiperidin-3-yl)acetic acid]
500 to 5000 nM | CCCc1cccnc1OCc1c(-c2ccc(N3CCC(CC(=O)O)C(F)(F)C3)c(C)n2)nnn1C (centres unmarked) [Example 113, 2-(3,3-difluoro-1-(2-methyl-6-(1-methyl-5-(((3-propylpyridin-2-yl)oxy)methyl)-1H-1,2,3-triazol-4-yl)pyridin-3-yl)piperidin-4-yl)acetic acid]
< 100 nM | CCc1nc(-c2nnn(C)c2COc2noc(CC3CC3)n2)ccc1N1C[C@@H](CC(=O)O)CC(F)(F)C1 [Example 116, (S)-2-(1-(6-(5-(((5-(cyclopropylmethyl)-1,2,4-oxadiazol-3-yl)oxy)methyl)-1-methyl-1H-1,2,3-triazol-4-yl)-2-ethylpyridin-3-yl)-5,5-difluoropiperidin-3-yl)acetic acid]
100 to 500 nM | CCc1nc(-c2nnn(C)c2CNc2noc(CC3CC3)n2)ccc1N1C[C@@H](CC(=O)O)CC(F)(F)C1 [Example 117, (S)-2-(1-(6-(5-(((5-(cyclopropylmethyl)-1,2,4-oxadiazol-3-yl)amino)methyl)-1-methyl-1H-1,2,3-triazol-4-yl)-2-ethylpyridin-3-yl)-5,5-difluoropiperidin-3-yl)acetic acid]
> 5000 nM | CCc1nc(-c2cnn(C)c2COc2noc(CC3CC3)n2)ncc1N1C[C@@H](CC(=O)O)CC(F)(F)C1 [Example 118, (S)-2-(1-(2-(5-(((5-(cyclopropylmethyl)-1,2,4-oxadiazol-3-yl)oxy)methyl)-1-methyl-1H-pyrazol-4-yl)-4-ethylpyrimidin-5-yl)-5,5-difluoropiperidin-3-yl)acetic acid]
100 to 500 nM | CCc1nc(-c2nnn(C)c2COc2noc(C3CCC3)n2)ccc1N1C[C@@H](CC(=O)O)CC(F)(F)C1 [Example 119, (S)-2-(1-(6-(5-(((5-cyclobutyl-1,2,4-oxadiazol-3-yl)oxy)methyl)-1-methyl-1H-1,2,3-triazol-4-yl)-2-ethylpyridin-3-yl)-5,5-difluoropiperidin-3-yl)acetic acid]
500 to 5000 nM | CCc1nc(-c2nnn(C)c2CNc2noc(C3CCC3)n2)ccc1N1C[C@@H](CC(=O)O)CC(F)(F)C1 [Example 120, (S)-2-(1-(6-(5-(((5-cyclobutyl-1,2,4-oxadiazol-3-yl)amino)methyl)-1-methyl-1H-1,2,3-triazol-4-yl)-2-ethylpyridin-3-yl)-5,5-difluoropiperidin-3-yl)acetic acid]
500 to 5000 nM | CCCn1ncnc1OCc1c(-c2ccc(N3C[C@@H](CC(=O)O)CC(F)(F)C3)c(CC)n2)nnn1C [Example 121, (S)-2-(1-(2-ethyl-6-(1-methyl-5-(((1-propyl-1H-1,2,4-triazol-5-yl)oxy)methyl)-1H-1,2,3-triazol-4-yl)pyridin-3-yl)-5,5-difluoropiperidin-3-yl)acetic acid]
100 to 500 nM | CCc1nc(-c2nnn(C)c2COc2ncnn2CC2CC2)ccc1N1C[C@@H](CC(=O)O)CC(F)(F)C1 [Example 122, (S)-2-(1-(6-(5-(((1-(cyclopropylmethyl)-1H-1,2,4-triazol-5-yl)oxy)methyl)-1-methyl-1H-1,2,3-triazol-4-yl)-2-ethylpyridin-3-yl)-5,5-difluoropiperidin-3-yl)acetic acid]
100 to 500 nM | CCc1nc(-c2nnn(C)c2COc2ncnn2CC(C)C)ccc1N1C[C@@H](CC(=O)O)CC(F)(F)C1 [Example 123, (S)-2-(1-(2-ethyl-6-(5-(((1-isobutyl-1H-1,2,4-triazol-5-yl)oxy)methyl)-1-methyl-1H-1,2,3-triazol-4-yl)pyridin-3-yl)-5,5-difluoropiperidin-3-yl)acetic acid]
< 100 nM | CCc1nc(-c2nnn(C)c2COc2nnn(CC(C)C)n2)ccc1N1C[C@@H](CC(=O)O)CC(F)(F)C1 [Example 124, (S)-2-(1-(2-ethyl-6-(5-(((2-isobutyl-2H-tetrazol-5-yl)oxy)methyl)-1-methyl-1H-1,2,3-triazol-4-yl)pyridin-3-yl)-5,5-difluoropiperidin-3-yl)acetic acid]
